Reference: US8569292B2, “Cyclic inhibitors of 11β-hydroxysteroid dehydrogenase 1” (Vitae Pharmaceuticals, Inc., priority 2008, dated 2013)
Read-outs that look alike come from different tables or passages of the source.

Assays:
[1] = target: T1, 11β-HSD1 (Homo sapiens, UniProt P28845); test: Biological Test Example 4: microsomal 11β-HSD1 in the presence of 50% human plasma; details: for Shift: IC50 in Test Example 4 divided by IC50 in Test Example 1
[2] = target: CYP3A4 (Homo sapiens, UniProt P08684); test: Biological Test Example 6: CYP3A4 inhibition (erythromycin N-demethylation); type: in vitro ADME
Chain of CYP3A4 (P08684 whole entry): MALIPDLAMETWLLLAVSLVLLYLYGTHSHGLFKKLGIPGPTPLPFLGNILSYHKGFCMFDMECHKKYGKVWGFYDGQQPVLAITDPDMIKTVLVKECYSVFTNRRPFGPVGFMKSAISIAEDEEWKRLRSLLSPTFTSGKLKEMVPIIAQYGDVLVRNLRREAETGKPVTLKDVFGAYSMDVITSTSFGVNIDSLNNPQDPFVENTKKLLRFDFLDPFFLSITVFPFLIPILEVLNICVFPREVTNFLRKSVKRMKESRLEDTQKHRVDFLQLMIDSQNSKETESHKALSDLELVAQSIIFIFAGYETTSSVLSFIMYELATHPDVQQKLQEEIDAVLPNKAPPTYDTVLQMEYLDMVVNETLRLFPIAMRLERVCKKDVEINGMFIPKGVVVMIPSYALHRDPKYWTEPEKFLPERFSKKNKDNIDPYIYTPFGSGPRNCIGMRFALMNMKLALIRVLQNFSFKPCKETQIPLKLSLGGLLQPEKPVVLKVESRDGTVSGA

[3] = Biological Test Example 5: fraction unbound in human plasma (equilibrium dialysis); type: in vitro ADME
Protocol: Plasma protein binding of compounds was determined with Equilibrium Dialysis of spiked plasma against compound free dextrane buffer using a dialysis membrane with mass cutoff of 5000 Da. Compound concentrations in plasma and buffer after incubation were measured using HPLC/Mass spectrometry.

[4] = target: T1, 11β-HSD1; test: biochemical; details: for inhibition at 0.1 µM: read-out: Average % inhibition at 100 nM
[5] = target: CYP2C19 (Homo sapiens, UniProt P33261); test: Biological Test Example 8: CYP2C19 inhibition (diazepam N-demethylation); type: in vitro ADME
Chain of CYP2C19 (P33261 whole entry): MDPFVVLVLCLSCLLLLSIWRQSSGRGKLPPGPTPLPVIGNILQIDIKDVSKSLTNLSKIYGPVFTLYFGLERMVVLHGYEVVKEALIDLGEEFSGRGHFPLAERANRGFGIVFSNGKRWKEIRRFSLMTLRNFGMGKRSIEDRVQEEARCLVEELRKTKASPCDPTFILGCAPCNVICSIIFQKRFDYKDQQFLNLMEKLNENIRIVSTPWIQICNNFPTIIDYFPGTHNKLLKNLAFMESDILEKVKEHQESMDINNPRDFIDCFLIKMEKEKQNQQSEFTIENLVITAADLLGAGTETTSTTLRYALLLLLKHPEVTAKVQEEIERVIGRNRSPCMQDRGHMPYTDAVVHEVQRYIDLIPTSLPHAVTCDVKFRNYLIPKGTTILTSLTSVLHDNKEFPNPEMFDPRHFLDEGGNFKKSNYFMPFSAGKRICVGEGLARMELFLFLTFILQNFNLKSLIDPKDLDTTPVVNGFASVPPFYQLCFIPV

[6] = target: T2, CYP2C9 (Homo sapiens, UniProt P11712); test: Biological Test Example 7: CYP2C9 inhibition (naproxen O-demethylation); type: in vitro ADME
T2 construct: purchased Invitrogen 2859; host or cells: insect cells infected with baculovirus (microsomes)
T2 sequence (P11712 whole entry): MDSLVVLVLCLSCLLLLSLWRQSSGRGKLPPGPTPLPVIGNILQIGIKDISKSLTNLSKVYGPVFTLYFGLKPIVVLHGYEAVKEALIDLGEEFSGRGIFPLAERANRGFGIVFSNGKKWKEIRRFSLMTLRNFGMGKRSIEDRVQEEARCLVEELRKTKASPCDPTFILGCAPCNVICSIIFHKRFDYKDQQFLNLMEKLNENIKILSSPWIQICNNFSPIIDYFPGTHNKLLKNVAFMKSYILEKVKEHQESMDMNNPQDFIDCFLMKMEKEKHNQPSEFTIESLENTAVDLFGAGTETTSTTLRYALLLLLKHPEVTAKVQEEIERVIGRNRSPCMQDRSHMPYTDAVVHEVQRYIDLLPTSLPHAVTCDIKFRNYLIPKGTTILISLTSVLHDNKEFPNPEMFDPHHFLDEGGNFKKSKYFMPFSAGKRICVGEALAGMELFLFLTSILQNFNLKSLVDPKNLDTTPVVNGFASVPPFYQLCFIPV

[7] = target: T2, CYP2C9; test: Biological Test Example 9: CYP2C9 inhibition (Invitrogen kit, fluorogenic OOMR); type: in vitro ADME
[8] = target: T1, 11β-HSD1
[9] = Biological Test Example 1 IC50 (nM)
[10] = IC50 Range, Biological Test Example 1

T1 sequence (P28845 whole entry): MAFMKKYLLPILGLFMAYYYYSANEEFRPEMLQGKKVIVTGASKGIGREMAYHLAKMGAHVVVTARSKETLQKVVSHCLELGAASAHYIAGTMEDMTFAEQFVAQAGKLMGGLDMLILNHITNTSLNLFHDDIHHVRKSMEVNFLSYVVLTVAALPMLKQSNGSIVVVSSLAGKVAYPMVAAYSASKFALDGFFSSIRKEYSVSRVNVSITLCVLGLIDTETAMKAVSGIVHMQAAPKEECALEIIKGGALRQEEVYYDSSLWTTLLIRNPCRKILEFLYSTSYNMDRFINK

SMILES | IC50 [1] [nM] | IC50 [2] [µM] | Biological Test Example 5 (%) [3] [%] | IC50 [4, 9] [nM] | IC50 [4, 10] [nM] | inhibition at 0.1 µM [4] [%] | IC50 [5] [µM] | IC50 [6] [µM] | IC50 [7] [µM] | Average % inhibition at 100 nM ([8]; 100 nM) [%] | IC50 ([8]; read-out: Biological Test Example 1 IC50) [nM] | IC50 ([8]; read-out: IC50 Range, Biological Test Example 1) [nM] | Shift [1]
C[C@@H](c1ccc(-c2ccc(C#N)cn2)cc1)N1CC[C@](CC(C)(C)O)(c2ccc(F)cc2)OC1=O [EXAMPLE 111, 6-(4-((S)-1-((S)-6-(4-fluorophenyl)-6-(2-hydroxy-2-methylpropyl)-2-oxo-1,3-oxazinan-3-yl)ethyl)phenyl)nicotinonitrile] | 7.2 | 9.8 | 2 | 0.8 | < 100 | 97.6 | > 50 | > 50 | 4.7 | – | – | – | –
Cc1cc(-c2ccc([C@H](C)N3CCC(CCN4CCCS4(=O)=O)(c4ccccc4)OC3=O)cc2)ccn1 (stereo in doubt) [EXAMPLE 118, (R)-3-((S)-1-(4-(2-methylpyridin-4-yl)phenyl)ethyl)-6-phenyl-6-(2-(1,1-dioxoisothiazolidin-2-yl)ethyl)-1,3-oxazinan-2-one] | – | – | – | – | – | – | – | – | – | 86.3 | 19.2 | < 100 | –
Cc1ccc(-c2ccc([C@H](C)N3CC[C@](CC(C)(C)O)(c4ccccc4)OC3=O)cc2)nn1 [EXAMPLE 134, (S)-6-(2-hydroxy-2-methylpropyl)-3-((S)-1-(4-(6-methylpyridazin-3-yl)phenyl)ethyl)-6-phenyl-1,3-oxazinan-2-one] | – | > 50 | 10.5 | – | – | – | > 50 | > 50 | > 30 | – | – | – | –
C[C@@H](c1ccc(-c2ccc(F)cn2)cc1)N1CC[C@](CC(C)(C)O)(c2ccccc2)OC1=O [EXAMPLE 136, (S)-3-((S)-1-(4-(5-fluoropyridin-2-yl)phenyl)ethyl)-6-(2-hydroxy-2-methylpropyl)-6-phenyl-1,3-oxazinan-2-one] | – | 24.1 | 0.3 | – | – | – | 24.7 | 20.1 | 9.6 | – | – | – | –
Cc1cc(-c2ccc([C@H](C)N3CC[C@](CCCNS(C)(=O)=O)(c4ccc(F)cc4)OC3=O)cc2)ccn1 [EXAMPLE 80, N-(3-((R)-6-(4-fluorophenyl)-3-((S)-1-(4-(2-methylpyridin-4-yl)phenyl)ethyl)-2-oxo-1,3-oxazinan-6-yl)propyl)methanesulfonamide] | 5.5 | 13 | – | 1 | < 100 | 96 | 13.2 | 11.2 | 8.9 | – | – | – | 5.4
C[C@@H](c1ccc(-c2ccc(C#N)cn2)cc1)N1CC[C@](CC(C)(C)O)(c2ccccc2)OC1=O [EXAMPLE 138, 6-(4-((S)-1-((S)-6-(2-hydroxy-2-methylpropyl)-2-oxo-6-phenyl-1,3-oxazinan-3-yl)ethyl)phenyl)nicotinonitrile] | – | 12.7 | 2 | – | – | – | 24.2 | 22.2 | – | – | – | – | –
C[C@@H](c1ccc(-c2ccccn2)cc1)N1CC[C@](CCCNS(C)(=O)=O)(c2ccc(F)cc2)OC1=O [EXAMPLE 61, N-(3-((R)-6-(4-fluorophenyl)-2-oxo-3-((S)-1-(4-(pyridin-2-yl)phenyl)ethyl)-1,3-oxazinan-6-yl)propyl)methanesulfonamide] | 13.6 | 29.2 | – | 0.7 | < 100 | 96.2 | 40 | 23 | 9.9 | – | – | – | 18.2
COc1ccc(-c2ccc([C@H](C)N3CC[C@](CCC(N)=O)(c4ccccc4)OC3=O)cc2)cn1 [EXAMPLE 52, 3-((R)-3-((S)-1-(4-(6-methoxypyridin-3-yl)phenyl)ethyl)-2-oxo-6-phenyl-1,3-oxazinan-6-yl)propanamide] | 10.5 | > 50 | 1.8 | 1.1 | < 100 | 94.5 | – | – | – | – | – | – | –
Cc1cc(-c2ccc([C@H](C)N3CC[C@](CC(C)(C)O)(c4ccc(F)cc4)OC3=O)cc2)ccn1 [EXAMPLE 76, (S)-6-(4-fluorophenyl)-6-(2-hydroxy-2-methylpropyl)-3-((S)-1-(4-(2-methylpyridin-4-yl)phenyl)ethyl)-1,3-oxazinan-2-one] | 6.9 | 5 | – | 0.8 | < 100 | 98.7 | 8.5 | 2.9 | 7.9 | – | – | – | 8.8
C[C@@H](c1ccc(-c2cnccn2)cc1)N1CC[C@](CC(C)(C)O)(c2ccccc2)OC1=O [EXAMPLE 130, (S)-6-(2-hydroxy-2-methylpropyl)-6-phenyl-3-((S)-1-(4-(pyrazin-2-yl)phenyl)ethyl)-1,3-oxazinan-2-one] | 21.6 | 11.8 | 1.9 | 2.5 | < 100 | 97.9 | 3 | > 50 | 9.7 | – | – | – | –
Cc1ncc(-c2ccc([C@H](C)N3CC[C@](CC(C)(C)O)(c4ccccc4)OC3=O)cc2)cn1 [EXAMPLE 149, (S)-6-(2-hydroxy-2-methylpropyl)-3-((S)-1-(4-(2-methylpyrimidin-5-yl)phenyl)ethyl)-6-phenyl-1,3-oxazinan-2-one] | – | > 50 | 2.7 | – | – | – | > 50 | > 50 | 17.4 | – | – | – | –
Cc1cc(-c2ccc([C@H](C)N3CC[C@](CC(C)(C)O)(c4ccccc4)OC3=O)cc2)ccn1 [EXAMPLE 97, (S)-6-(2-hydroxy-2-methylpropyl)-3-((S)-1-(4-(2-methylpyridin-4-yl)phenyl)ethyl)-6-phenyl-1,3-oxazinan-2-one] | 10.8 | 8.9 | – | 1 | < 100 | 98.8 | 19.5 | 11.2 | 9.7 | – | – | – | 11.1
